# From patent publication US20070112056A1, “Stable modifications of tegaserod hydrogen maleate” (priority 2003, published 2007)
# Columns and labels:
# Type in all cases: physicochemical
# [1] = Stability of the crystal form when exposed to heat (DSC thermogram)
# Procedure: Characteristic for the modification A is the thermogram in differential scanning calorimetry (DSC). It has an endothermic melting peak at about 190° C. The melting enthalpy of the endothermic signal Is 130 J/g±5 J/g. The measurement Is carried out on a Perkin Elmer DSC 7 in a crimped pan with a heating rate of 10 K/minute., The typical sample quantity is about 2 mg. As a typical distinguishing feature compared with the modification B and the acetone solvate, ethanol solvate, the thermogram of the modification A has no further thermal signal (see Table 1a below):
# It has an endothermic peak in addition to the one at about 190° C., at 97° C. and melting/crystallization signals at about 181° C. […] The measurement is done as described above.
# [2] = Stability of the crystal form in the presence of water
# [3] = Conversion between crystal forms / thermodynamic stability
# [4] = Solubility
# [5] = compared to modification B and the ethanol, acetone solvate
smiles,measurement,setting,value
"CCCCCNC(=N)N/N=C/c1c[nH]c2ccc(OC)cc12.O=C(O)/C=C\C(=O)O [modification A, modification A of the hydrogen maleate salt of 3-(5-methoxy-1H-indol-3-yl-methylene)-N-pentylcarbazimidamide]",stability when exposed to heat,[1]; [5],more stable when exposed to heat
same,stability in the presence of water,[2]; [5],more stable In the presence of water
same,thermodynamic stability,[3]; relative to modification B,thermodynamically more stable than modification B
CCCCCNC(=N)N/N=C/c1c[nH]c2ccc(OC)cc12.O=C(O)/C=C\C(=O)O [modification B],conversion of crystal form when heating is applied,"[1]; DSC, heating rate 10 K/minute",converts into modification A
same,conversion of crystal form,"[3]; under certain conditions, e.g. heat or water containing organic solvents",completely or partly be converted into modification A
CCCCCNC(=N)N/N=C/c1c[nH]c2ccc(OC)cc12.O=C(O)/C=C\C(=O)O [solvate with acetone],conversion of crystal form by equilibration with water,[2]; equilibration with water,can be transformed into modification A
"CCCCCNC(=N)N/N=C/c1c[nH]c2ccc(OC)cc12.O=C(O)/C=C\C(=O)O [tegaserod hydrogen maleate, 3-(5-methox-1H-indol-3-yl-methylene)-N-pentylcarbazimidamide hydrogen maleate]",solubility,[4],poor
